Source: patent US20080058373A1, “Compositions and Methods for Treating or Preventing Glaucoma or Progression Thereof” (priority 2006, published 2008)
Where “and” joins values, the source holds several entries; their conditions need not be identical. Equal values may be shown once. Entries after “also recorded” stand apart in the source; their conditions may differ.

Assays:
[1] = tested on: rabbit eye (anterior chamber paracentesis); assay: Pupillary diameter measurement, rabbit paracentesis model; assay type: in vivo; conditions: 0.1% topical
Procedure: (§1) Each rabbit was placed in a restraint device and tagged with the alphanumeric code. The formulations were instilled (50 μl) into the conjunctival sac of both eyes 180, 120, 90 and 30 min before the first paracentesis; then 15, 30, 90 min after the first paracentesis. To perform the first paracentesis the animals were anaesthetized by intravenous injection of 5 mg/kg Zoletil® (Virbac; 2.5 mg/kg tiletamine HCl and 2.5 mg/kg zolazepam HCl) and one drop of local anesthetic (Novesina®, Novartis) was administered to the eye. Anterior chamber paracentesis was performed with a 26 G needle attached to a tuberculin syringe; the needle was introduced into the anterior chamber through the cornea, taking care not to damage the tissues. Two hours after the first paracentesis, the animals were sacrificed with 0.4 ml Tanax® (Intervet International B.V.) and the second paracentesis was performed. About 100 μl of aqueous humor were removed at the second paracentesis. Aqueous humor was immediately split in four aliquots and stored at −80° C. until analysis. Then both eyes were enucleated and the iris-ciliary body was carefully excised, placed in polypropylene tubes, and stored at −80° C. until analysis.
The pupillary diameter of both eyes was measured with a Castroviejo caliper 180 min and 5 min before the first paracentesis and 5 min before the second paracentesis.

[2] = tested on: rabbit eye (anterior chamber paracentesis); assay: Clinical evaluation by slit lamp (clinical score), rabbit paracentesis model; assay type: in vivo; design: key to Clinical Score −180 min / Clinical Score −5 min / Clinical Score +115 min: 0=normal; 1=discrete dilatation of iris and conjunctival vessels; 2=moderate dilatation of iris and conjunctival vessels; 3=intense iridal hyperemia with flare in the anterior chamber; 4=intense iridal hyperemia with flare in the anterior chamber and presence of fibrinous exudates; conditions: 0.1% topical
[3] = tested on: protein in aqueous humor; assay: Protein measurement in aqueous humor, rabbit paracentesis model; assay type: in vivo; conditions: 0.1% topical
Procedure: as §1
For protein concentration determination in the aqueous humor we used the Protein Quantification Kit (Fluka; Cat.No. 77371; Lot.No. 1303129). Five microliters of aqueous humor were diluted to 100 μl with water. Twenty microliters of samples and of standards were load into a 96-well plate and recorded in a plate layout. Samples were treated following the assay procedure described in the kit. A microplate reader (GDV, Italy; model DV 990 B/V6) set at 670 nm was used for making the calibration and analyzing the samples.

[4] = tested on: Leukocytes (PMN); assay: Leukocytes (PMN) measurement in aqueous humor, rabbit paracentesis model; assay type: in vivo; conditions: 0.1% topical; second paracentesis; group mean
Procedure: as §1
For the determination of the number of leukocytes we used a haemocytometer (Improved Neubauer Chamber; Bright-line, Hausser Scientific) and a Polyvar 2 microscope (Reichert-Jung).

[5] = tested on: New Zealand White rabbits; assay: Mortality/morbidity in the rabbit IOP study; assay type: in vivo
Procedure: On Days 1-31, animals received daily topical doses of the appropriate test article into the right eye. Animals were dosed four times per day, with doses administered 2 hours apart. Doses were administered using a calibrated 50-μL pipette. The eyelids were held close for 10 seconds immediately following dosing. The time of each dose administration was recorded.
Animals determined to be moribund were euthanized with an intravenous injection of commercial euthanasia solution.

[6] = tested on: primary human corneal epithelial cells; assay: IL-1β-stimulated cytokine production in primary HCECs (30-cytokine Luminex kit); conditions: 18 h, P<0.05
Procedure: Primary HCECs were seeded in 24-well plates. […] Each treatment was performed in triplicate. Media were collected and used for determination of cytokine content using a 30-cytokine Luminex kit. Cell viability was determined by alamarBlue assay (LP06013).
Median fluorescence intensity (MFI) was used to obtain the concentration of each cytokines in pg/ml based on the standard curve of each cytokine assayed by Luminex. The linear range of the standard curve for each cytokine was used for determination of cytokine concentration. Duplicate values for each sample were averaged. Data were expressed as mean±SD. Statistical analysis was performed using one-way ANOVA-Dunnett's test, and P<0.05 was considered statistically significant.

[7] = 5 min before the first paracentesis, single eyes, listed as Dex
[8] = 5 min before the second paracentesis, single eyes, listed as Dex
[9] = 0.1% (0.05 mg/dose) 4 × daily, Group A, individual rabbits
[10] = 10 ng/ml IL-1β-stimulated HCECs

## C[C@@H]1C[C@H]2[C@@H]3CCC4=CC(=O)C=C[C@]4(C)[C@@]3(F)[C@@H](O)C[C@]2(C)[C@@]1(O)C(=O)CO [dexamethasone, reference compound]
[1]; 50 μl drops, −180 min (basal), single eyes, listed as Dex
  Pupillary diameter T1: −180 min: 6.0 mm and 7.0 mm and 5.5 mm and 6.5 mm
[1]; [7]
  Pupillary diameter T2: −5 min: 5.5 mm and 6.5 mm and 6.0 mm and 7.0 mm and 7.5 mm
[1]; [8]
  Pupillary diameter T3: +115 min: 5.5 mm and 6.0 mm and 4.5 mm and 5.0 mm and 6.5 mm
[1]; group mean, n=8 eyes
  Pupillary diameter Mean Δ(T3 − T1): −0.8 mm
[2]; [7]
  Clinical Score −5 min: 0 and 1
[2]; [8]
  Clinical Score +115 min: 1 and 3
[2]; +115 min, N=8 eyes
  Percentage of eyes with clinical score 1: 75%
  Percentage of eyes with clinical score 3: 25%
[2]; −5 min, N=8 eyes
  Percentage of eyes with clinical score 0: 75%
  Percentage of eyes with clinical score 1: 25%
[2]; −180 min (basal), N=8 eyes
  Percentage of eyes with clinical score 0: 100%
[2]; −180 min (basal), single eyes
  Clinical Score −180 min: 0
[3]; samples collected at the second paracentesis, single eyes, listed as Dex
  Protein levels in aqueous humor (raw data): 31.31 mg/mL and 31.81 mg/mL and 35.95 mg/mL and 37.15 mg/mL and 32.12 mg/mL and 32.40 mg/mL
[3]; second paracentesis, group mean
  Protein levels in aqueous humor, Mean: 33.457 mg/mL
[4]
  PMN numbers in aqueous humor, Mean: 30.000 number/μl
[5]; [9]
  Day of Death (day euthanized or found dead): 25 (2×) and 27 (2×) and 23 and 13
  Recorded Notes (mortality): Euthanized due to severe hemorrhagic diarrhea. Noted to be; also recorded: Euthanized. Very sick/poor health; left (untreated) eye; also recorded: Euthanized due to severe profuse hemorrhagic diarrhea; also recorded: Found dead. No rigor mortis present
[5]; 0.1%, 0.05 mg/dose, topical right eye 4 × daily, Day 33
  Mortality (animals found dead or euthanized prior to study completion/number of animals in group): 6/10^(3)
[6]; [10]
  Concentration at which a significant inhibitory effect was observed on IL-6: 1 nM
  Concentration at which a significant inhibitory effect was observed on MCP-1: 10 nM
  Concentration at which a significant inhibitory effect was observed on TGF-α: 10 nM
  Concentration at which a significant inhibitory effect was observed on TNF-α: 10 nM
[6]; IL-1β-stimulated HCECs
  Concentration at which a significant inhibitory effect was observed on RANTES: 1 µM
